pIC50: −log10 of the molar value.
How the values were obtained:
Type in all cases: cell-based
[1] = target: T1, NLRP3 inflammasome (Rattus norvegicus, UniProt D4A523); test: Inhibition of IL-1β production in rat PBMCs stimulated by LPS + nigericin; details: Rat PBMC, read-out: Geo Av IC50, IL-1β
T1 construct: host or cells: rat PBMCs
From the text: (§1) Inflammasome activation and whole blood assays were essentially carried out as described earlier. Details can be found in the supplementary information section accompanying this publication. A protocol for blood draws from healthy volunteers and use of the blood in preclinical assays was approved by Western Institutional Review Board, Inc (Puyallup, WA, USA). Informed consent was obtained from each donor prior to the first blood draw.
4H). MS: m/z 433.1 (M+H+).
Inflammasome activation.PBMCs (iXCells Biotechnologies, San Diego, USA) were thawed the day before the assay and seeded in complete medium (RPMI 1640 medium with GlutaMAX, supplemented with an additional 2.5 g/L D-glucose, 10% Fet al Bovine Serum, 100 mM Sodium Pyruvate, 1% Penicillin/Streptomycin, 10 mM HEPES and 0.05 mM β -mercaptoethanol) in polystyrene V-bottom 96-well plates at 5x10^4 cells per well and incubated overnight at 37°C with 5% CO 2. […]
flagellin, prepared in Opt iMEM and combined with Lipofectamine 2000. […] After priming Nlrp3 -/- mBMDMs with 100 ng/mL of LPS for 3- 5 h, cells were exposed to 100 ng/mL L18- MDP and incubated overnight.At the end of the incubation period of the assays above, plates were briefly centri fuged and hal f of the cell culture supern atant remo ved and either analysed i mmediately or stored at - 80°C for subs equent cytokine […]

[2] = target: T2, NLRP3 inflammasome (Mus musculus, UniProt Q8R4B8); test: Inhibition of IL-1β production in mouse PBMCs stimulated by LPS + nigericin; parameters: host or cells: mouse PBMCs; mouse bone-marrow derived macrophages; mouse whole blood (C57BL/6 in the ex vivo study); details: Mouse PBMC, read-out: Geo Av IC50, IL-1β
Method: as §1
(§2) Cell viability was determined by addition of an equal volume of CellTiter-Glo® 2.0 reagent (Promega) to the remaining cells/supernatant in each well. Intracellular Caspase-1 activity was measured using the Caspase-Glo® assay (Promega) according to the manufacturer’s instructions. The biochemical capsase-1 assay was conducted at Reaction Biology Corporation (Malvern, USA). Human IL-1β, IL-1α, and TNFα and mouse IL-1β were measured in cell culture supernatants using homogeneous time resolved fluorescence assay kits (HTRF, Cisbio, Codolet, France). Human IL-18 was measured in cell culture supernatants using an ELISA kit (R&D Systems, Minneapolis, MN, USA). Plasma IL-1β concentrations were determined by Quantikine® ELISA (R&D Systems, Minneapolis, MN).
(§3) 4H). MS: m/z 433.1 (M+H+). […]

[3] = target: T2, NLRP3 inflammasome; test: Inhibition of IL-1β production in mouse PBMCs stimulated by LPS + ATP; parameters: host or cells: mouse PBMCs; mouse bone-marrow derived macrophages; mouse whole blood (C57BL/6 in the ex vivo study); details: Mouse PBMC, read-out: Geo Av IC50, IL-1β
Method: as §1, §2, §3

T2 sequence (Q8R4B8 whole entry): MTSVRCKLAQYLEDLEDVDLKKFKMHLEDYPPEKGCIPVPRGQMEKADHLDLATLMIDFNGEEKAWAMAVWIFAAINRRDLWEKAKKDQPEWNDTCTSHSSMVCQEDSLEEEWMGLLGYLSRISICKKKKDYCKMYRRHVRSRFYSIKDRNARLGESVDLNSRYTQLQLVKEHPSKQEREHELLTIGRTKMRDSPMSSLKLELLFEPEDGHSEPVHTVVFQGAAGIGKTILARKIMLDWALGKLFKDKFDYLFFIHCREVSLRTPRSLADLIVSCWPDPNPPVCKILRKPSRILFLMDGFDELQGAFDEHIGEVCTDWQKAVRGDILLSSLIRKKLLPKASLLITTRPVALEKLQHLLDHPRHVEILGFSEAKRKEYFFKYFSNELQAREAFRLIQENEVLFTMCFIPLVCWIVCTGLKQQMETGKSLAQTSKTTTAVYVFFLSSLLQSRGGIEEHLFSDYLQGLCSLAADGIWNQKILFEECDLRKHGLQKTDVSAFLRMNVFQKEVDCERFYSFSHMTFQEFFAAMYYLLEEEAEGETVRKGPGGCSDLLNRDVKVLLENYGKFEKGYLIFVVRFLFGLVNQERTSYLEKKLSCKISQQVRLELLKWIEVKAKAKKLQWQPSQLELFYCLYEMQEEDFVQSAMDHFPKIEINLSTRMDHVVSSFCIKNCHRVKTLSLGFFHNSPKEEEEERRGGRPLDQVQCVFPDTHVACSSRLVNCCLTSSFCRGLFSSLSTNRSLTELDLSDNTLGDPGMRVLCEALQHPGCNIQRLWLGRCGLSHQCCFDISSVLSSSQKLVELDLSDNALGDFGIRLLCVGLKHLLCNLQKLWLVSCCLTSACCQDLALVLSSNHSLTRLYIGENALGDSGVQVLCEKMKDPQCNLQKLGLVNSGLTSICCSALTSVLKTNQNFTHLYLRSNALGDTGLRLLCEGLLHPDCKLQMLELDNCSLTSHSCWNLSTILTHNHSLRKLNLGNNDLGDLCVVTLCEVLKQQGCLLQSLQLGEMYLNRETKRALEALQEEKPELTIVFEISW
T1 sequence (D4A523 whole entry): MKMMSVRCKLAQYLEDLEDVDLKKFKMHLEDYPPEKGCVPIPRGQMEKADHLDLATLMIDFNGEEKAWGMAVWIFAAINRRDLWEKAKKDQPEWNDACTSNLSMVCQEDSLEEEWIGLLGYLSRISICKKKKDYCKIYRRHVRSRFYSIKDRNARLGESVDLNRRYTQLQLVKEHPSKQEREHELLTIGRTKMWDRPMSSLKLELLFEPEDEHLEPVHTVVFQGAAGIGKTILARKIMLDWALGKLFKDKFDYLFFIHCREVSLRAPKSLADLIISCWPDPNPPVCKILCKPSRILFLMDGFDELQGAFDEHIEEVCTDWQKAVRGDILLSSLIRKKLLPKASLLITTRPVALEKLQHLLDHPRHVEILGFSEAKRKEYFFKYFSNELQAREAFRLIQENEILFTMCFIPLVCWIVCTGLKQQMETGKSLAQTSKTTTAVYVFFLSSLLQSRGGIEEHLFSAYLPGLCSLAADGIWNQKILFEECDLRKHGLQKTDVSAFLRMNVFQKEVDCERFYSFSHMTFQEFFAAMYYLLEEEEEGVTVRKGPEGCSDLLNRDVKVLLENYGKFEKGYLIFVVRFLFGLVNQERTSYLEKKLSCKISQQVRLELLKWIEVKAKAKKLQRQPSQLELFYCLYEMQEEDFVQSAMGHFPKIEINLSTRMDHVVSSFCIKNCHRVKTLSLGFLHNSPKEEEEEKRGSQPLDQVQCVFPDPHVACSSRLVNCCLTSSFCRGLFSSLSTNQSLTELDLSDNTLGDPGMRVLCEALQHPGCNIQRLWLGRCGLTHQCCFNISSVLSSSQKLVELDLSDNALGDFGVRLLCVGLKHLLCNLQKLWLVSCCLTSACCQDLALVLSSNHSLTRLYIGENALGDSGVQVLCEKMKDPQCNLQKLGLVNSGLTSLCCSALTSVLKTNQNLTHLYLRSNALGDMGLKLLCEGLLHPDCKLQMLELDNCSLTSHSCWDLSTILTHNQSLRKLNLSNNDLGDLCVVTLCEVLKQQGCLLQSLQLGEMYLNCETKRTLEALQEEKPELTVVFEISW

CO[C@@H]1COc2c(S(=O)(=O)NC(=O)Nc3c4c(cc5c3CCC5)CCC4)cnn2C1 [JT002]
pIC50 [1]: 6.80
pIC50 [2]: 7.60
pIC50 [3]: 8.15

Source: publication PMC10439952, “JT002, a small molecule inhibitor of the NLRP3 inflammasome for the treatment of autoinflammatory disorders” (Scientific Reports, 2023)
